Assay results as given in publication PMC6934184, “Selective DNA-PKcs inhibition extends the therapeutic index of localized radiotherapy and chemotherapy” (The Journal of Clinical Investigation, 2019).

Target: T1, STK23 (MSSK1) (Homo sapiens, UniProt Q9UPE1)
T1 construct: purchased Thermo Fisher Scientific (Life Technologies) SelectScreen
Assay: SelectScreen Z'LYTE
Type: biochemical
Outline: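 SelectScreen broad panel; activity (Z'LYTE, Adapta) plus binding formats. ATP: Km app for CSF1R Z'LYTE; 10 for CAMK1 Adapta. Readout = % per kinase.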

T1 sequence (Q9UPE1 whole entry): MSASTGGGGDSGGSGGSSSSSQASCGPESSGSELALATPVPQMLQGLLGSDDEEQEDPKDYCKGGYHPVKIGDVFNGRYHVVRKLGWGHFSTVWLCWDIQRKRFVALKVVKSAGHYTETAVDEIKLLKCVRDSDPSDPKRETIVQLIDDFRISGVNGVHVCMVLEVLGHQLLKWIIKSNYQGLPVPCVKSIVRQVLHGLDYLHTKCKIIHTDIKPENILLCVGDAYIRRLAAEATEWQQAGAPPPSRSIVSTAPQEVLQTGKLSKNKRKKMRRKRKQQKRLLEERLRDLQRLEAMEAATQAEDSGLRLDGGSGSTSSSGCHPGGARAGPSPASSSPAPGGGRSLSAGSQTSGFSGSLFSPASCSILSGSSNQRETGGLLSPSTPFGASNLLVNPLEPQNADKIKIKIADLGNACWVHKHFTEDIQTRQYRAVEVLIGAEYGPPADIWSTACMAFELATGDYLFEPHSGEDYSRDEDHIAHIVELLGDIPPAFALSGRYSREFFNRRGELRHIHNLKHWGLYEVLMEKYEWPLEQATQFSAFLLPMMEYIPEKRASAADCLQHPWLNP

CN(C(=O)CN1CCOCC1)c1ccc2sc3c(-c4cccc5c(=O)cc(N6CC7CCC(C6)O7)oc45)cccc3c2c1 [NU5455]
inhibition at 1 µM: 2%
